The values that follow come from patent US5686458A, “Quinazoline deriviates for treating peptic ulcer” (Yuhan Corporation, priority 1992, dated 1997).

As a reminder, the pIC50 is the IC50 on a negative log10 scale, so that one unit is a factor of ten.

Each structure is given as a SMILES string. pIC50: −log10 of the molar value. Where only a bound is given, the exact number is not on record here.

Assay [1] deals with T1, Proton Pump (H^+ /K^+ ATPase) (Oryctolagus cuniculus, UniProt P27112).
T1 construct: The microsomes thus obtained were used as an enzyme source of the in vitro enzyme reaction study of proton pump; from tissue; host or cells: rabbit stomach, mucosal scrapings, microsomes (180,000 g pellet)
T1 sequence (P27112 whole entry): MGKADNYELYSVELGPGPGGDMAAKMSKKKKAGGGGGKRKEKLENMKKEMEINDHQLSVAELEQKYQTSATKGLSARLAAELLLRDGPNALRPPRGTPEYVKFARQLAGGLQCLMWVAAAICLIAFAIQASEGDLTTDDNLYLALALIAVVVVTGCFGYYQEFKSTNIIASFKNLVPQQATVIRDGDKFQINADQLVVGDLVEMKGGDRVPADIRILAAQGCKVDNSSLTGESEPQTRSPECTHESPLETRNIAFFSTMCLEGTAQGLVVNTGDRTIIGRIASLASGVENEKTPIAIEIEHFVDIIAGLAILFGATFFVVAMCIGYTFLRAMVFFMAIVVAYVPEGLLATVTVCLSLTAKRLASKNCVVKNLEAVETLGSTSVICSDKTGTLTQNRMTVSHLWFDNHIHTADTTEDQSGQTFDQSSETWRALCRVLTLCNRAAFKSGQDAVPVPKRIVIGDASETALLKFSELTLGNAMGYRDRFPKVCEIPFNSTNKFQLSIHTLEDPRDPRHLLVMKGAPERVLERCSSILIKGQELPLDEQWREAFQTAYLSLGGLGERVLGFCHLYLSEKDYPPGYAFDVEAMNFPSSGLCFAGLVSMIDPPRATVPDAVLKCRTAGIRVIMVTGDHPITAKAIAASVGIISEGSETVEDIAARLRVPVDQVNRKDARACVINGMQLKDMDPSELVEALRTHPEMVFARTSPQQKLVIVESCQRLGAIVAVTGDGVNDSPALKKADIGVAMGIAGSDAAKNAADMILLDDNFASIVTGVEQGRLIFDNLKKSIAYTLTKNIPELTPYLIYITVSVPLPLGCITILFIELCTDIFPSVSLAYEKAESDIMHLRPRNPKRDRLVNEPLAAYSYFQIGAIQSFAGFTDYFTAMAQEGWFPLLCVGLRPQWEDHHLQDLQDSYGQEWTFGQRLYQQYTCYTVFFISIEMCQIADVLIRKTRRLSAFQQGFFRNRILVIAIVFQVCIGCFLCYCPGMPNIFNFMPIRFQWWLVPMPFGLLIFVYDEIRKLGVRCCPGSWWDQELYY
T1 sequence (P18597 whole entry partner): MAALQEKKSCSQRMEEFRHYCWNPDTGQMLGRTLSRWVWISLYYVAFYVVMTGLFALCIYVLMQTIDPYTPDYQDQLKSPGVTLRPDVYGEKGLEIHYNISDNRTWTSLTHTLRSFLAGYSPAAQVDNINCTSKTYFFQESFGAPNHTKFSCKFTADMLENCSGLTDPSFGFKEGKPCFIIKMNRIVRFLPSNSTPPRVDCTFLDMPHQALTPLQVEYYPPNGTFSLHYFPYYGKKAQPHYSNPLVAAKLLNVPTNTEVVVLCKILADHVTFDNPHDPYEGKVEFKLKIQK
In words: Inhibition of Proton Pump (H+/K+ ATPase) Activity, in vitro enzyme reaction (Experiment 1). Format: biochemical, New Zealand white rabbit. As to conditions: for Effect ratio: IC50 of Omeprazole / IC50 of test compound; for pIC50: K+-stimulated H+/K+ ATPase activity, rabbit gastric microsomes, pH 7.2, 37° C., 15 min prereaction, 30 min reaction, read-out: IC50 of test compound, inhibition (50%) of the proton pump activity. As for the experimental part: A New Zealand white rabbit was killed by blowing its head and the stomach was taken out. The contents of the stomach were removed and the stomach walls were washed with was saline. The inner wall of the stomach was scratched out with a slide glass and the cells thus obtained were homogenized in 0.25M sucrose buffer by means of a Teflon-glass homogenizer. The homogenous solution was centrifuged at 10,000 g for 10 minutes and the supernatant was further centrifuged at 20,000 g for 20 minutes. The supernatant thus obtained was centrifuged at an ultra-high speed of 180,000 g for 1 hour. The pellets precipitated were collected by discarding the supernatant and suspended in 50 mM Tris-HCl buffer having pH 7.2. The suspension was dialyzed twice with the same buffer(of 1,000 times volume) for 3 hours and stored into liquid nitrogen.
The above centrifugation and dialysis were carried out at 4° C. The microsomes thus obtained were used as an enzyme source of the in vitro enzyme reaction study of proton pump.
The inhibitory effects of proton pump activity by the compounds of the present invention were measured by the in vitro enzyme reaction study. The proton pump activity stimulated by Mg^++ was used as a negative comparative group, and the activity stimulated by Mg^++ and K^+ was used as a positive comparative group. The comparative compound was omeprazole.
Test tubes were divided into 4 groups: Group 1 as negative comparative group(n=3), Group 2 as positive comparative group(n=3), Group 3(n=5) to be administered with the compound of the present invention and Group 4(n=5) to be administered with the comparative compound. The inhibitory effects of proton pump activity of Groups 3 and 4 were measured by employing the compound prepared in Example 34 and omeprazole, respectively, each of which was dissolved in dimethylsulfoxide at 5 different concentrations.
To each of Groups 1, 2, 3 and 4, were added 0.1 ml of magnesium chloride(40 mM) dissolved in 50 mM Tris-HCl buffer (pH 7.2) and […] of the enzyme source prepared in Experiment 1-1. Then, 0.1 ml of potassium chloride(500 mM) and 0.1 ml of ammonium chloride(100 mM) dissolved in 50 mM Tris-HCl buffer(pH 7.2) were added to all groups except for Group 1.
0.1 ml of dimethylsulfoxide was added to each of Groups 1 and 2; and to Group 3 was added 0.01 ml of the solution in which the compound prepared in Example 34 was dissolved in dimethylsulfoxide at 5 different concentrations. To Group 4, 0.01 ml of the solution prepared by dissolving omprazole in dimethylsulfoxide at 5 different concentrations(37.6, 21.4, 12.2, 7.0 and 4.0 μM) was added. 50 mM Tris-HCl buffer was added thereto so as to make the total volume 0.4 ml.
Thereafter, the test tubes of each Group were placed at 37° C. for 15 minutes for the prereaction. 0.1 ml of ATP solution(33.3 mM), which was prepared by adding Tris-ATP 50 mM to Tris-HCl buffer having pH 7.2, was added until the reaction volume became 0.5 ml. The final concentrations of MgCl2, KCl, NH4 Cl, ATP, enzyme and Tris-HCl were 8 mM, 100 mM, 20 mM, 6.7 mM, 100μg/ml and 50 mM, respectively. After the reaction was carried out at 37° C. for 30 minutes, 25% cold trichloroacetic acid was added to terminate the enzyme reaction. The released inorganic phosphate was measured by an automatic analyzer(SBA 300, Gilford).
The difference between Group 1 and Group 2 represents the proton pump activity activated by K^+ only. The inhibition percentages of Groups 3 and 4 were calculated from Litchfield-wilcoxon equation[see J. Pharmacol. Exptl. Ther. 96, 99(1949)]. The concentrations of the test compounds which inhibit 50% of the proton pump activity are represented as IC50 in Table 1.

The next assay concerns gastric secretion. Briefly: Inhibition of Gastric Secretion, pylorus-ligated rats (Experiment 2). The assay is classed as in vivo, Sprague-Dawley rats. The settings on record: relative to omeprazole (equation III), 20 mg/kg intraduodenally, pylorus-ligated rats, 5 hours. As for the experimental part: In accordance with the method disclosed in Shay, H., et al., Gastroenterology 5, 43-61(1945), Experiment 2 was carried out.
Sprague-Dawley rats having a body weight of 170±10 g were divided into 3 groups(n=5) and deprived of food for 24 hours before the experiment with free access to water. Under ether anesthesia, the abdomen was incised, and the pylorus was ligated. As a comparative group, Group 1 was administered intraduodenally in a volume of 0.5 ml/200 g of 30% aqueous polyethylene glycol 400 solution. Groups 2 and 3 were administered intraduodenally with the compound of Example 34 and omeprazole, respectively, each of which was suspended in 30% aqueous polyethylene glycol 400 solution at a concentration of 20 mg/kg. After closing the abdominal cavity, the rats were placed for 5 hours and then killed by cervical dislocation. The stomach was extracted to obtain gastric juice.
The gastric juice was centrifuged at 1,000 g to remove precipitates. The amount and acidity of the gastric juice were measured. Relative volumes, relative acid concentrations and relative acid outputs of the test compounds were calculated from equations(I), (II) and (III) and the results are shown in Table 2.
(I) = the average amount of gastric juice of Group 1 - the
average amount of gastric juice of Group 2)/(the average
amount of gastric juice of Group 1 - the average amount
of gastric juice of Group 3)
Relative acid concentration
(II) = (the average acidity of Group 1 - the average
acidity of Group 2)/(the average acidity of Group 1 - the average
(III) = (the total amount of acid output of Group 1 - the
total amount of acid output of Group 2)/(the total amount of acid
output of Group 1 - the total amount of acid output of Group

Take `COc1cccc2c(N3CCc4ccccc4C3)nc(N(C)c3ccc(F)cc3)nc12.Cl` [Example 32, 8-Methoxy-2-(4-Fluoro-N-Methyl-Phenylamino)-4-(1,2,3,4-Tetrahydroisoquinoline-2-Yl) Quinazoline Hydrochloride]: in assay [1], the Effect ratio is given as over 0.58 and the pIC50 was under 4.80. In addition, the “Relative Acid Output” value in the assay on gastric secretion came out at 0.43.

Turning to `COc1cccc2c(N3CCc4ccccc4C3)nc(Nc3ccccc3)nc12.Cl` [Example 28, 8-Methoxy-2-(phenylamino)-4-(1,2,3,4-Tetrahydroisoquinoline-2-Yl)Quinazoline Hydrochloride], in assay [1], the Effect ratio is reported as 6.92 and the pIC50 was 5.92. In addition, in the assay with gastric secretion, the “Relative Acid Output” value came to 0.64.

Take `COc1cccc2c(N3CC(C)c4ccccc4C3C)nc(Nc3ccc(F)cc3C)nc12.Cl` (stereo not drawn) [Example 57, 2-(4-fluoro-2-Methylphenyl-Amino)-8-Methoxy-4-(1,4-Dimethyl-1,2,3,4-Tetrahydroisoquinoline-2-Yl) Quinazoline Hydrochloride]: in assay [1], the Effect ratio worked out at 1.04 and the pIC50 is 5.14. In addition, in the assay with gastric secretion, the “Relative Acid Output” value came to 0.67.

For the molecule `COc1cccc2c(N3CCc4ccccc4C3)nc(N(C)c3ccccc3)nc12.Cl` [Example 29, 8-Methoxy-2-(N-Methylphenyl-Amino)-4-(1,2,3,4-Tetrahydroisoquinoline-2-Yl)Quinazoline Hydrochloride], in assay [1], the Effect ratio was 1.47 and the pIC50 was 5.31. The “Relative Acid Output” value in the assay on gastric secretion is on record as 0.84.

Regarding `COc1cccc2c(N3CCc4ccccc4C3C3CC3)nc(Nc3ccc(F)cc3C)nc12.Cl` (stereo not drawn) [Example 47, 2-(4-Fluoro-2-Methylphenyl-Amino)-8-Methoxy-4-(1-cyclopropyl-1,2,3,4-Tetrahydroisoquinoline-2-Yl)Quinazoline Hydrochloride], in assay [1], the Effect ratio is 0.49 and the pIC50 is about 4.60. In addition, the “Relative Acid Output” value in the assay with gastric secretion was determined as 0.33.

For the molecule `Cc1cc(F)ccc1Nc1nc(N2CCc3cccc4c3C2CC4)c2ccccc2n1.Cl` (stereo not drawn) [Example 27, 2-(4-Fluoro-2-Methylphenyl-Amino)-4-(1,8-Ethano-1,2,3,4-Tetrahydroisoquinoline-2-Yl) Quinazoline Hydrochloride], in assay [1], the Effect ratio amounted to 1.97 and the pIC50 was 5.54. Further, the “Relative Acid Output” value with gastric secretion came out at 0.30.

As to `COc1cccc2c(N3CCc4cc(C)ccc4C3C)nc(Nc3ccc(F)cc3C)nc12.Cl` (stereo not drawn) [Example 55, 2-(4-Fluoro-2-Methylphenyl-Amino)-8-Methoxy-4-(1,6-Dimethyl-1,2,3,4-Tetrahydroisoquinoline-2-Yl)Quinazoline Hydrochloride], in assay [1], the Effect ratio is listed as ~ 0.80 and the pIC50 is about 5.00. The “Relative Acid Output” value in the assay with gastric secretion turned out to be 0.50.

In the case of `CC1c2ccccc2CCN1c1nc(N(C)c2ccccc2)nc2ccccc12.Cl` (stereo not drawn) [Example 24, 2-(N-Methylphenylamino)-4-(1-Methyl-1,2,3,4-Tetrahydroisoquinoline-2-Yl)Quinazoline Hydrochloride], in assay [1], the Effect ratio is ~ 1.29 and the pIC50 is about 4.90. Further, in the assay with gastric secretion, the “Relative Acid Output” value is recorded as 0.36.

Take `COc1cccc2c(N3Cc4ccccc4CC3C)nc(Nc3ccc(F)cc3C)nc12.Cl` (stereo not drawn) [Example 49, 2-(4-Fluoro-2-Methylphenyl-Amino)-8-Methoxy-4-(3-Methyl-1,2,3,4-Tetrahydroisoquinoline-2-Yl)Quinazoline Hydrochloride]: in assay [1], the Effect ratio is recorded as over 0.25 and the pIC50 is under 4.60. The “Relative Acid Output” value with gastric secretion came to 0.42.

In the case of `COc1cccc2c(N3CCc4ccccc4C3C)nc(Nc3ccc(F)cc3C)nc12.CS(=O)(=O)O` (stereo not drawn) [Example 60, 2-(4-Fluoro-2-MethylPhenyl-Amino)-8-Methoxy-4-(1-Methyl-1,2,3,4-Tetrahydroisoquinoline-2-Yl)Quinazoline Methanesulfonate], in assay [1], the Effect ratio was found to be 5.20 and the pIC50 was 5.74. In addition, in the assay on gastric secretion, the “Relative Acid Output” value amounted to 0.84.

Turning to `Cc1cc(F)ccc1Nc1nc(N2CCc3ccccc3C2)c2ccccc2n1.Cl` [Example 22, 2-(4-Fluoro-2-Methylphenyl -Amino)-4-(1,2,3,4-Tetrahydroisoquinoline-2-Yl)Quinazoline Hydrochloride], in assay [1], the Effect ratio is on record as 11.29 and the pIC50 was 6.15. In the assay on gastric secretion, the “Relative Acid Output” value amounted to 0.64.

As to `COc1cccc2c(N3CCc4ccccc4C3CF)nc(Nc3ccc(F)cc3C)nc12.Cl` (stereo not drawn) [Example 44, 2-(4-Fluoro-2-Methylphenyl-Amino)-8-Methoxy-4-(1-Fluoromethyl-1,2,3,4-Tetrahydroisoquinoline-2-Yl)Quinazoline Hydrochloride], in assay [1], the Effect ratio is reported as ~ 0.97 and the pIC50 was about 4.90. Further, the “Relative Acid Output” value in the assay on gastric secretion was found to be 0.75.

As to `COc1cccc2c(N3CCc4cccc(C)c4C3C)nc(Nc3ccc(F)cc3)nc12.Cl` (stereo not drawn) [Example 52, 2-(4-Fluorophenylamino)-8-Methoxy-4-(1,8-Dimethyl-1,2,3,4-Tetrahydroisoquinoline-2-Yl)Quinazoline Hydrochloride], in assay [1], the Effect ratio was determined as 1.26 and the pIC50 is 5.12. In addition, the “Relative Acid Output” value with gastric secretion turned out to be 0.79.

For the molecule `COc1cccc2c(N3CCc4ccccc4C3)nc(Nc3ccc(F)cc3C)nc12.Cl` [Example 31, 8-Methoxy-2-(4-Fluoro-2-Methyl -Phenylamino)-4-(1,2,3,4-Tetrahydroisoquinoline-2-yl) Quinazoline Hydrochloride], in assay [1], the Effect ratio is listed as 5.13 and the pIC50 was 5.70. Besides, the “Relative Acid Output” value in the assay with gastric secretion is on record as 0.79.

Regarding `CN(c1ccc(F)cc1)c1nc(N2CCc3ccccc3C2)c2ccccc2n1.Cl` [Example 20, 2-(4-Fluoro-N-Methylphenyl-Amino)-4-(1,2,3,4-Tetrahydroisoquinoline-2-Yl)Quinazoline Hydrochloride], in assay [1], the Effect ratio is reported as 1.10 and the pIC50 is 5.08. Moreover, the “Relative Acid Output” value in the assay on gastric secretion is recorded as 0.92.
